Laboratory results taken from the NIST ThermoML archive (doi:10.1021/je034087q).
Numbers after ± are expanded uncertainties.

Experiment: xn = mol fraction of the nth substance listed
Conditions: Fluid (supercritical or subcritical phases), x2 = 0.901

CCCCC [pentane] + O=C=O
mass density [kg/m3]
Conditions	326.15 K	328.15 K
8540 kPa	461 ± 3	–
8560 kPa	465 ± 3	–
8580 kPa	469 ± 3	–
8610 kPa	472 ± 3	–
8630 kPa	476 ± 3	–
8650 kPa	–	431 ± 3
8670 kPa	481 ± 3	–
8690 kPa	–	436 ± 3
8700 kPa	486 ± 3	–
8720 kPa	–	442 ± 3
8740 kPa	491 ± 3	–
8760 kPa	–	448 ± 3
8780 kPa	496 ± 3	–
8830 kPa	–	459 ± 3
8840 kPa	503 ± 3	–
8870 kPa	509 ± 3	–
8880 kPa	–	465 ± 3
8920 kPa	516 ± 3	–
8930 kPa	–	473 ± 3
8970 kPa	520 ± 3	475 ± 3
9010 kPa	524 ± 3	–
9030 kPa	–	483 ± 3
9080 kPa	531 ± 3	–
9100 kPa	–	491 ± 3
9160 kPa	538 ± 3	499 ± 3
9220 kPa	544 ± 3	–
9230 kPa	–	507 ± 3
9320 kPa	–	517 ± 3
9350 kPa	551 ± 3	–
9410 kPa	–	524 ± 3
9420 kPa	558 ± 4	–
9500 kPa	562 ± 4	–
9530 kPa	–	533 ± 3
9560 kPa	567 ± 4	–
9630 kPa	–	542 ± 3
9680 kPa	573 ± 4	–
9760 kPa	579 ± 4	552 ± 3
9870 kPa	583 ± 4	–
9930 kPa	–	562 ± 4
9990 kPa	590 ± 4	–
10030 kPa	–	568 ± 4
10130 kPa	595 ± 4	572 ± 4
10230 kPa	–	579 ± 4
10250 kPa	601 ± 4	–
10350 kPa	–	584 ± 4
10380 kPa	–	586 ± 4
10410 kPa	608 ± 4	–
10490 kPa	–	590 ± 4
10580 kPa	–	594 ± 4
10720 kPa	618 ± 4	–
10750 kPa	–	601 ± 4
10880 kPa	–	606 ± 4
10920 kPa	625 ± 4	–
11060 kPa	–	612 ± 4
11140 kPa	–	614 ± 4
11150 kPa	631 ± 4	–
11380 kPa	638 ± 4	–
11500 kPa	–	625 ± 4
11660 kPa	645 ± 4	–
11670 kPa	–	629 ± 4
11800 kPa	–	634 ± 4
11950 kPa	652 ± 4	–
11970 kPa	–	639 ± 4
12180 kPa	–	642 ± 4
12280 kPa	658 ± 4	–
12340 kPa	–	646 ± 4
12560 kPa	–	652 ± 4
12630 kPa	666 ± 4	–
12760 kPa	–	655 ± 4
13020 kPa	–	661 ± 4
13030 kPa	673 ± 4	–
13280 kPa	–	665 ± 4
13480 kPa	680 ± 4	–
13560 kPa	–	669 ± 4
13790 kPa	–	674 ± 4
13950 kPa	686 ± 4	–
14260 kPa	–	682 ± 4
14540 kPa	696 ± 4	–
14800 kPa	700 ± 4	–
14810 kPa	–	691 ± 4
